Calls of active or inactive are those of the source. No cut-off for these calls is given here.
Experiments:
[1] = target: G protein-coupled receptor kinase 3 (Homo sapiens) (UniProt P35626); assay: Inhibition of recombinant human full-length GST-tagged ADRBK2 expressed in insect cells at 2 uM using Ser/Thr 16 as substrate measured after 1 hr by Z'-LYTE assay relative to control; conditions: Insect cell
[2] = target: Calcium/calmodulin-dependent protein kinase type 1D (Homo sapiens) (UniProt Q8IU85); assay: Inhibition of recombinant human full-length His-tagged CAMK1D expressed in insect cells at 2 uM using Ser/Thr 25 as substrate measured after 1 hr by Z'-LYTE assay relative to control; conditions: Insect cell
[3] = target: Serine/threonine-protein kinase MRCK alpha (Homo sapiens) (UniProt Q5VT25); assay: Inhibition of recombinant human His-tagged CDC42BPA (1-473 residues) expressed in baculovirus expression system at 2 uM using Ser/Thr 13 as substrate measured after 1 hr by Z'-LYTE assay relative to control
[4] = target: Cyclin-dependent kinase 5/CDK5 activator 1 (Homo sapiens) (UniProt Q00535+Q15078); assay: Inhibition of recombinant human full-length GST/His-tagged CDK5/p25 expressed in insect cells at 2 uM using Ser/Thr 12 as substrate measured after 1 hr by Z'-LYTE assay relative to control; conditions: Insect cell
Chain of Cyclin-dependent kinase 5/CDK5 activator 1 (Homo sapiens) (Q00535 whole entry, the tested form may be a part): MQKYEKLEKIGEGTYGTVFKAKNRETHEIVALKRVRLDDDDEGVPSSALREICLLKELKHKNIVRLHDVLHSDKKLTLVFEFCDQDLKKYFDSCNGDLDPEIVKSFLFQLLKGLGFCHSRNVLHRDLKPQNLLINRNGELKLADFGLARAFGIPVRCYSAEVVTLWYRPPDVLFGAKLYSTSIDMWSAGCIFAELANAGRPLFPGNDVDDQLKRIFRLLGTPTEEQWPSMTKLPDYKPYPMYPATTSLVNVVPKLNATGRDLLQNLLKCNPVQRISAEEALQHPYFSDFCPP
Chain of Cyclin-dependent kinase 5/CDK5 activator 1 (Homo sapiens) (Q15078 99-307 partner limits assumed): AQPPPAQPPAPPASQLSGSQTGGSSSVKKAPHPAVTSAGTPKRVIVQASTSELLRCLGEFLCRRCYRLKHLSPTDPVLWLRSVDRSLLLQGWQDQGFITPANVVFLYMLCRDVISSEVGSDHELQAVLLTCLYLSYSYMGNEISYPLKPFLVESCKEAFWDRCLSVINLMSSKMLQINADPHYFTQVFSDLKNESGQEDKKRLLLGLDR

[5] = target: Receptor tyrosine-protein kinase erbB-2 (Homo sapiens) (UniProt P04626); assay: Inhibition of recombinant human His-tagged ERBB2 (676-1255 residues) expressed in insect cells at 2 uM using Tyr 06 as substrate measured after 1 hr by Z'-LYTE assay relative to control; conditions: Insect cell
Chain of Receptor tyrosine-protein kinase erbB-2 (Homo sapiens) (P04626 whole entry, the tested form may be a part): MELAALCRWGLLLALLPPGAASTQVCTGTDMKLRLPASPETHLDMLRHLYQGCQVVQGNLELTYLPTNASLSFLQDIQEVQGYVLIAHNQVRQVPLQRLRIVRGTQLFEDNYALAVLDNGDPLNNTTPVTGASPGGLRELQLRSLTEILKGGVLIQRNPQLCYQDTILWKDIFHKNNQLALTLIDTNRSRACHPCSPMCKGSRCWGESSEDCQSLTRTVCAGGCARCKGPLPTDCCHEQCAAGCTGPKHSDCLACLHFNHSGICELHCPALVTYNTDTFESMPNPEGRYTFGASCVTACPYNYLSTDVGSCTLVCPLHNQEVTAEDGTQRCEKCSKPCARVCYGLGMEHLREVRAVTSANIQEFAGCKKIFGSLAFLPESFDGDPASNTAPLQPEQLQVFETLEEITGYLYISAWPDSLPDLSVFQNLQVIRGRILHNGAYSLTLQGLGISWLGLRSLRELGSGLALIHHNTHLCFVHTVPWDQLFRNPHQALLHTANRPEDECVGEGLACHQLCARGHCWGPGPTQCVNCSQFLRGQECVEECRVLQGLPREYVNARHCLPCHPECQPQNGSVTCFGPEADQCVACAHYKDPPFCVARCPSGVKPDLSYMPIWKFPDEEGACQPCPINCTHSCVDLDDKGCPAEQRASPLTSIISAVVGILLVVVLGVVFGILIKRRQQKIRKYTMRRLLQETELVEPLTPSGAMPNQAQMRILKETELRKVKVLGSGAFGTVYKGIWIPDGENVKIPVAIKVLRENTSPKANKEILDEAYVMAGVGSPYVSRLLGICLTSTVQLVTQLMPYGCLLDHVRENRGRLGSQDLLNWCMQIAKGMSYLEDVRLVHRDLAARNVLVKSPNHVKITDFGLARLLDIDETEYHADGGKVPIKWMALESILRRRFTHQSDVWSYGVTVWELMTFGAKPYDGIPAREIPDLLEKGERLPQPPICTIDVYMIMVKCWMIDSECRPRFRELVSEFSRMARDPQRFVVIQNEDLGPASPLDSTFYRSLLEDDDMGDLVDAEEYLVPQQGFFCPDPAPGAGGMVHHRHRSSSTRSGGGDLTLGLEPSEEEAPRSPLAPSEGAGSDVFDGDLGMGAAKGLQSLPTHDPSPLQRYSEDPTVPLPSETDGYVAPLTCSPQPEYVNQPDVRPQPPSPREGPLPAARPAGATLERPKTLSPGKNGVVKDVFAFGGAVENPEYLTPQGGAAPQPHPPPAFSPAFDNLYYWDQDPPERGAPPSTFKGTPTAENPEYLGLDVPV

[6] = target: Rhodopsin kinase GRK7 (Homo sapiens) (UniProt Q8WTQ7); assay: Inhibition of recombinant human full-length GST-tagged GRK7 expressed in insect cells at 2 uM using Ser/Thr 16 as substrate measured after 1 hr by Z'-LYTE assay relative to control; conditions: Insect cell
[7] = target: Inhibitor of nuclear factor kappa-B kinase subunit beta (Homo sapiens) (UniProt O14920); assay: Inhibition of recombinant human full-length GST-tagged IKBKB expressed in insect cells at 2 uM using Ser/Thr 05 as substrate measured after 1 hr by Z'-LYTE assay relative to control; conditions: Insect cell
[8] = target: Tyrosine-protein kinase JAK3 (Homo sapiens) (UniProt P52333); assay: Inhibition of recombinant human GST-tagged JAK3 (781-1124 residues) expressed in insect cells at 2 uM using Tyr 06 as substrate measured after 1 hr by Z'-LYTE assay relative to control; conditions: Insect cell
[9] = target: Mitogen-activated protein kinase 12 (Homo sapiens) (UniProt P53778); assay: Inhibition of recombinant human full length His-tagged MAPK12 expressed in baculovirus expression system at 2 uM using Ser/Thr 03 as substrate measured after 1 hr by Z'-LYTE assay relative to control
Chain of Mitogen-activated protein kinase 12 (Homo sapiens) (P53778 whole entry): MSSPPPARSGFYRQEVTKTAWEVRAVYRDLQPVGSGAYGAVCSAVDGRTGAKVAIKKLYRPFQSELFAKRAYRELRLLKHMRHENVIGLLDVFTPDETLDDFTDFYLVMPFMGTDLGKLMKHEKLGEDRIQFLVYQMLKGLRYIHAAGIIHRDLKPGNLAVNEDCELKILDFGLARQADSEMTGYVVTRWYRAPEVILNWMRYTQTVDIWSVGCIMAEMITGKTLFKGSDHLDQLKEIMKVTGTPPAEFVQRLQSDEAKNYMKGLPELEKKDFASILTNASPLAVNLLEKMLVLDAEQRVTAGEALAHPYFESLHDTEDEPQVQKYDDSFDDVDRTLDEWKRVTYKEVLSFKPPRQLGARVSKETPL

[10] = target: Megakaryocyte-associated tyrosine-protein kinase (Homo sapiens) (UniProt P42679); assay: Inhibition of recombinant human full length His-tagged MATK expressed in E. coli at 2 uM using Tyr 01 as substrate measured after 1 hr by Z'-LYTE assay relative to control
Chain of Megakaryocyte-associated tyrosine-protein kinase (Homo sapiens) (P42679 whole entry, the tested form may be a part): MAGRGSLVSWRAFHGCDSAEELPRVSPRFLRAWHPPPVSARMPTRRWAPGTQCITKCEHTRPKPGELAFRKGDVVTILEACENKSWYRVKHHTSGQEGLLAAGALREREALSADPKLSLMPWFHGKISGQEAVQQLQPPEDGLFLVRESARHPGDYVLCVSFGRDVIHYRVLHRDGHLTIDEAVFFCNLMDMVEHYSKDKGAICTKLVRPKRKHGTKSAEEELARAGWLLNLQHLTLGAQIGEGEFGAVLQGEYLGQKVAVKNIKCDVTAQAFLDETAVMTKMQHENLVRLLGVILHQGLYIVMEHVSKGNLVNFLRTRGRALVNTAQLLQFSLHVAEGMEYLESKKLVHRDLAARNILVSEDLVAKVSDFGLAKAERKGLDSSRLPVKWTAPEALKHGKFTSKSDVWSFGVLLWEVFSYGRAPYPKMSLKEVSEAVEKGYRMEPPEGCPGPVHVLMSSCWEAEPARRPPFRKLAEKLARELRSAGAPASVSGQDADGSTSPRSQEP

[11] = target: Hepatocyte growth factor receptor (Homo sapiens) (UniProt P08581); assay: Inhibition of recombinant human His-tagged MET (956-1390 residues) expressed in baculovirus expression system at 2 uM using Tyr 06 as substrate measured after 1 hr by Z'-LYTE assay relative to control
[12] = target: Serine/threonine-protein kinase 26 (Homo sapiens) (UniProt Q9P289); assay: Inhibition of recombinant human full length GST-tagged MST4 expressed in insect cells at 2 uM using Ser/Thr 07 as substrate measured after 1 hr by Z'-LYTE assay relative to control; conditions: Insect cell
Chain of Serine/threonine-protein kinase 26 (Homo sapiens) (Q9P289 2-416 limits assumed): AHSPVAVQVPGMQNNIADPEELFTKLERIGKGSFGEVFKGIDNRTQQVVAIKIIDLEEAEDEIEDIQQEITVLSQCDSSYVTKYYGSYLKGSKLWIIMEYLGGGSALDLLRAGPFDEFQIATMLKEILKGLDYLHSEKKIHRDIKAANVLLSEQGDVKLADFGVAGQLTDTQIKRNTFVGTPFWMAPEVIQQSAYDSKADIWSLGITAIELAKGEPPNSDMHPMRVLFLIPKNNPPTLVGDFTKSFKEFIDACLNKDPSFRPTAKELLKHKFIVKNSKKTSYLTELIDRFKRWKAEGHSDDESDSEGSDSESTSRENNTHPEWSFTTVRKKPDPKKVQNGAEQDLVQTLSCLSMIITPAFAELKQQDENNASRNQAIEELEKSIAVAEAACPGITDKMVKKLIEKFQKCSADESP

[13] = target: Phosphorylase b kinase gamma catalytic chain, liver/testis isoform (Homo sapiens) (UniProt P15735); assay: Inhibition of recombinant human full length GST-tagged PHKG2 expressed in insect cells at 2 uM using Ser/Thr 07 as substrate measured after 1 hr by Z'-LYTE assay relative to control; conditions: Insect cell
Chain of Phosphorylase b kinase gamma catalytic chain, liver/testis isoform (Homo sapiens) (P15735 whole entry, canonical isoform): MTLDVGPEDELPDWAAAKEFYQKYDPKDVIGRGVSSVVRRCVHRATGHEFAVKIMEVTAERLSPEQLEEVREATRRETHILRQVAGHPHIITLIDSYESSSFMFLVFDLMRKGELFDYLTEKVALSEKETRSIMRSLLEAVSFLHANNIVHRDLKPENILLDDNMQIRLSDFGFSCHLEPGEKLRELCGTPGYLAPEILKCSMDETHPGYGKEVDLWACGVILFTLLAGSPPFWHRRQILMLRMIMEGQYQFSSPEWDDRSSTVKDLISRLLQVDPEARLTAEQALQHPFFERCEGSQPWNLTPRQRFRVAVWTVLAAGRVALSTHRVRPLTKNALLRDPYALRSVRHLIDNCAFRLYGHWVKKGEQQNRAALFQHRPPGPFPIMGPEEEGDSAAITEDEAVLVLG

[14] = target: Protein kinase C beta type (Homo sapiens) (UniProt P05771); assay: Inhibition of recombinant human full length GST-tagged PRKCB1 expressed in baculovirus expression system at 2 uM using Ser/Thr 07 as substrate measured after 1 hr by Z'-LYTE assay relative to control
[15] = target: Protein-tyrosine kinase 6 (Homo sapiens) (UniProt Q13882); assay: Inhibition of recombinant human full length His-tagged PTK6 expressed in baculovirus expression system at 2 uM using […] as substrate measured after 1 hr by Z'-LYTE assay relative to control
[16] = target: Ribosomal protein S6 kinase alpha-1 (Homo sapiens) (UniProt Q15418); assay: Inhibition of recombinant human full length His-tagged RPS6KA1 expressed in insect cells at 2 uM using Ser/Thr 06 as substrate measured after 1 hr by Z'-LYTE assay relative to control; conditions: Insect cell
Chain of Ribosomal protein S6 kinase alpha-1 (Homo sapiens) (Q15418 whole entry): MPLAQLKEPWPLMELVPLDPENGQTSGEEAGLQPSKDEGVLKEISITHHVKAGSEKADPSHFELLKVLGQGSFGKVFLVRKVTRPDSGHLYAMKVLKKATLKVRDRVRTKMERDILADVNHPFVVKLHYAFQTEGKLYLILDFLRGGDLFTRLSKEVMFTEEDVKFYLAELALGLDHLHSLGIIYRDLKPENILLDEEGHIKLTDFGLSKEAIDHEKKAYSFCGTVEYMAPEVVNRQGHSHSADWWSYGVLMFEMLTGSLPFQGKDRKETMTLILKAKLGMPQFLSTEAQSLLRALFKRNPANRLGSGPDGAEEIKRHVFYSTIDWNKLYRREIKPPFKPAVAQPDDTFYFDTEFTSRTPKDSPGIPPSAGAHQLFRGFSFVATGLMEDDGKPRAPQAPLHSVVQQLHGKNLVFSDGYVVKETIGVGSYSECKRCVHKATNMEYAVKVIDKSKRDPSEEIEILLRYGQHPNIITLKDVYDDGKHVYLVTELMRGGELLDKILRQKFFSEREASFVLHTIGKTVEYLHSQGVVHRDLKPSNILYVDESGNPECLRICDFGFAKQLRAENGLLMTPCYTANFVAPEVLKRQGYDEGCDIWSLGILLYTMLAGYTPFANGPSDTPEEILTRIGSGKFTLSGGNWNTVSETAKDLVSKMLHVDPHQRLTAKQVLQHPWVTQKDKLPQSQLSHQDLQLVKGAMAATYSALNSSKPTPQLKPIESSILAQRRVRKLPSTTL

[17] = target: Ribosomal protein S6 kinase alpha-3 (Homo sapiens) (UniProt P51812); assay: Inhibition of recombinant human full length His-tagged RPS6KA3 expressed in baculovirus expression system at 2 uM using Ser/Thr 06 as substrate measured after 1 hr by Z'-LYTE assay relative to control
Chain of Ribosomal protein S6 kinase alpha-3 (Homo sapiens) (P51812 whole entry): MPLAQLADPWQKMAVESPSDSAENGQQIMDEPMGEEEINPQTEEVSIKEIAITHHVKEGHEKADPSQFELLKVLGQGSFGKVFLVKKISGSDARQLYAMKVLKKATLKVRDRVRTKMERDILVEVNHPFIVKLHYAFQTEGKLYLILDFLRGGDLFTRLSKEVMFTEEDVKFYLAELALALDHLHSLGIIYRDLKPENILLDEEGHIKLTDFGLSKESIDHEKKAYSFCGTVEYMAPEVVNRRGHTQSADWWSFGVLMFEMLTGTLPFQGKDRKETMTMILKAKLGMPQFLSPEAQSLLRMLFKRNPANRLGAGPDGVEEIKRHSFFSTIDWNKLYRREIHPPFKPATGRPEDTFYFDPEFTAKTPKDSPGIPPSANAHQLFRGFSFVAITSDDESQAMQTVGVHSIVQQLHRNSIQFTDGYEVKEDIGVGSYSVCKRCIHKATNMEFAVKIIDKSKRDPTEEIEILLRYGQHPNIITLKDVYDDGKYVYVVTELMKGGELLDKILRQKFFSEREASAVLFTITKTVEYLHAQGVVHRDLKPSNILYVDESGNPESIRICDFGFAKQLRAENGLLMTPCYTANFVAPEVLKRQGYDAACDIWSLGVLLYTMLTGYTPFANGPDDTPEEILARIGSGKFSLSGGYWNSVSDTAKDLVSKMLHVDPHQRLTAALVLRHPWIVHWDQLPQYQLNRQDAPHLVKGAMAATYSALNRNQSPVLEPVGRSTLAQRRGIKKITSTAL

[18] = target: Tyrosine-protein kinase SYK (Homo sapiens) (UniProt P43405); assay: Inhibition of recombinant human full length GST-tagged SYK expressed in baculovirus expression system at 2 uM using […] as substrate measured after 1 hr by Z'-LYTE assay relative to control
MDA-MB-361 [19] = assay: Antiproliferative activity against human MDA-MB-361 cells assessed as cell growth inhibition incubated for 24 hrs by MTS assay; type: functional, cell-based; conditions: MDA-MB-361, 24 h
NCI-H157 = assay: Antiproliferative activity against human NCI-H157 cells assessed as cell growth inhibition incubated for 24 hrs by MTS assay; type: functional, cell-based; conditions: NCI-H157, 24 h
MDA-MB-361 [20] = assay: Antiproliferative activity against human MDA-MB-361 cells assessed as cell growth inhibition at 10 micromol/L incubated for 3 days by MTS assay relative to control; type: functional; conditions: MDA-MB-361, 72 h, dose 10 µmol/L, time 3 day
MDA-MB-361 [21] = assay: Induction of apoptosis in human MDA-MB-361 cells assessed as induction in cell death at 3 micromol/L incubated for 48 hrs by FACS analysis relative to control; type: functional; conditions: dose 3 µmol/L, at 3 µM
A498 [22] = assay: Antiproliferative activity against human A498 cells assessed as reduction in cell size at 1 micromol/L incubated for 48 hrs by Flow cytometry analysis relative to control; type: functional; set-up: scale not given: the % may be the effect or the level left; conditions: dose 1 µmol/L, at 1 µM
MDA-MB-361 [23] = assay: Antitumor activity against human MDA-MB-361 cells xenografted in female nude mouse model assessed as tumor growth delay at 5 mg/kg, po qd administered as 5 days on/2 days off regimen for 4 cycles; type: functional, organism-based; conditions: time 28.0 day
mTORC2 (Homo sapiens) = mTORC2 (Homo sapiens) (UniProt P42345+Q6R327+Q9BVC4+Q9BPZ7); conditions: U-87 MG, dose 0.025-2 µmol/L, time 6.0 hrs
A498 [24] = assay: cells; conditions: Homo sapiens, A498, 24 h
Description: Antiproliferative activity against human A498 cells assessed as cell growth inhibition incubated for 1 days by MTS assay

CNC(=O)Nc1ccc(-c2nc(N3CC4CCC(C3)O4)c3cnn(C4CCC5(CC4)OCCO5)c3n2)cc1
inhibition [1]: -3% | inhibition [2]: 0% | inhibition [3]: 7% | inhibition [4]: 1% | inhibition [5]: 0% | inhibition [6]: 7% | inhibition [7]: -5% | inhibition [8]: 0% | inhibition [9]: -2% | inhibition [10]: 2% | inhibition [11]: 2% | inhibition [12]: 7% | inhibition [13]: 12% | inhibition [14]: 11% | inhibition [15]: 8% | inhibition [16]: 4% | inhibition [17]: -2% | inhibition [18]: 1% | IC50 (MDA-MB-361 [19]): 24 nM | IC50 (NCI-H157): 145 nM | inhibition at 10 µM (MDA-MB-361 [20]): 100% | Activity (MDA-MB-361 [21]): 59% | Activity (A498 [22]): 83% | Activity (MDA-MB-361 [23]): Active | inhibition (mTORC2 (Homo sapiens)): Active | IC50 (A498 [24]): > 20 µM

— ChEMBL document CHEMBL5696439 (Cancer Res, 2010)
